# Molecular target: T1, recombinant human ALX receptor (Homo sapiens, UniProt P25090)
# T1 construct: expressed in transfected cells; host or cells: HEK293 (HEK293-hALXR-Gα16)
# T1 sequence (P25090 1-351): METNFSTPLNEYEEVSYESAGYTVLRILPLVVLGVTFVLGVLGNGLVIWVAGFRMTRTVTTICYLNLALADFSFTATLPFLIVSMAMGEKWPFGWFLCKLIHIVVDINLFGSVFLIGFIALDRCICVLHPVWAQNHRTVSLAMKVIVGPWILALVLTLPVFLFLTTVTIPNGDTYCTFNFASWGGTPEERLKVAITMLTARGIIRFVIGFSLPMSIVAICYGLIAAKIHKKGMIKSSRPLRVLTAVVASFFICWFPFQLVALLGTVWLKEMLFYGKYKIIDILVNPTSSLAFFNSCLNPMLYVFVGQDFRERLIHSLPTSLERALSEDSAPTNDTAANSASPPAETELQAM
# Experiment: Intracellular calcium measurements (FLIPR), ALX receptor agonistic activity
# Assay type: cell-based
# Conditions: HEK293-hALXR-Gα16 cells, Fluo-4 calcium signal, normalized to WKYMVm 10 nM
# Summary of the method: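 Agonist-induced calcium flux was read by FLIPR (488/540 nm) as baseline-subtracted peak emission, expressed relative to WKYMVm at 10 nM final. Cells used: HEK293-hALXR-Gα16, dye-loaded 60 min at 37° C. with 1 μM Fluo-4 AM before compound dose-response addition.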
row,EC50 [nM],Structure (SMILES)
1,168,"COc1ccc(C[C@@H](NC(=O)NCc2ccn(CC(F)(F)F)n2)c2nc3ccccc3[nH]2)cc1 [Example 293, (R)-1-(1-(1H-Benzo[d]imidazol-2-yl)-2-(4-methoxyphenyl)ethyl)-3-((1-(2,2,2-trifluoroethyl)-1H-pyrazol-3-yl)methyl)urea]"
2,7.6,"COc1ccc(C[C@@H](NC(=O)NCc2ccnn2-c2ccc(OC)cc2)c2nc3ccccc3[nH]2)cc1 [Example 294, (R)-1-(1-(1H-Benzo[d]imidazol-2-yl)-2-(4-methoxyphenyl)ethyl)-3-((1-(4-methoxyphenyl)-1H-pyrazol-5-yl)methyl)urea]"
3,645,"COc1ccc(C[C@@H](NC(=O)NCCc2ccncc2)c2nc3ccccc3[nH]2)cc1 [Example 295, (R)-1-(1-(1H-Benzo[d]imidazol-2-yl)-2-(4-methoxyphenyl)ethyl)-3-(2-(pyridin-4-yl)ethyl)urea]"
4,227,"COc1ccc(C[C@@H](NC(=O)NCCc2ccc(OC)cn2)c2nc3ccccc3[nH]2)cc1 [Example 296, (R)-1-(1-(1H-Benzo[d]imidazol-2-yl)-2-(4-methoxyphenyl)ethyl)-3-(2-(5-methoxypyridin-2-yl)ethyl)urea]"
5,217,"COc1ccc(C[C@@H](NC(=O)NCCN2CCc3ccccc3C2)c2nc3ccccc3[nH]2)cc1 [Example 297, (R)-1-(1-(1H-Benzo[d]imidazol-2-yl)-2-(4-methoxyphenyl)ethyl)-3-(2-(3,4-dihydroisoquinolin-2(1H)-yl)ethyl)urea]"
6,203,"COc1ccc(C[C@@H](NC(=O)NCc2nn(C)c3ccccc23)c2nc3ccccc3[nH]2)cc1 [Example 298, (R)-1-(1-(1H-Benzo[d]imidazol-2-yl)-2-(4-methoxyphenyl)ethyl)-3-((1-methyl-1H-indazol-3-yl)methyl)urea]"
7,167,"COc1ccc(C[C@@H](NC(=O)NCCc2ccc3c(c2)OCO3)c2nc3ccccc3[nH]2)cc1 [Example 299, (R)-1-(1-(1H-Benzo[d]imidazol-2-yl)-2-(4-methoxyphenyl)ethyl)-3-(2-(benzo[d][1,3]dioxol-5-yl)ethyl)urea]"
8,82,"COc1ccc(C[C@@H](NC(=O)NCCc2ccc(F)c(F)c2)c2nc3ccccc3[nH]2)cc1 [Example 300, (R)-1-(1-(1H-Benzo[d]imidazol-2-yl)-2-(4-methoxyphenyl)ethyl)-3-(3,4-difluorophenethyl)urea]"
9,66,"COc1ccc(C[C@@H](NC(=O)N[C@H](C)c2ccc(C)cc2)c2nc3ccccc3[nH]2)cc1 [Example 301, 1-((R)-1-(1H-Benzo[d]imidazol-2-yl)-2-(4-methoxyphenyl)ethyl)-3-((R)-1-(p-tolyl)ethyl)urea]"
10,129,"COc1ccc(C[C@@H](NC(=O)NCCc2ccc(Cl)cc2)c2nc3ccccc3[nH]2)cc1 [Example 302, (R)-1-(1-(1H-Benzo[d]imidazol-2-yl)-2-(4-methoxyphenyl)ethyl)-3-(4-chlorophenethyl)urea]"
11,426,"COc1ccc(C[C@@H](NC(=O)NCc2cc(Cl)ccc2Cl)c2nc3ccccc3[nH]2)cc1 [Example 303, (R)-1-(1-(1H-Benzo[d]imidazol-2-yl)-2-(4-methoxyphenyl)ethyl)-3-(2,5-dichlorobenzyl)urea]"
12,141,"COc1ccc(C[C@@H](NC(=O)NCc2c(Cl)cccc2Cl)c2nc3ccccc3[nH]2)cc1 [Example 304, (R)-1-(1-(1H-Benzo[d]imidazol-2-yl)-2-(4-methoxyphenyl)ethyl)-3-(2,6-dichlorobenzyl)urea]"
13,80,"COc1ccc(C[C@@H](NC(=O)NCC2CCCc3ccccc32)c2nc3ccccc3[nH]2)cc1 (stereo partly drawn) [Example 305, 1-((R)-1-(1H-Benzo[d]imidazol-2-yl)-2-(4-methoxyphenyl)ethyl)-3-((1,2,3,4-tetrahydronaphthalen-1-yl)methyl)urea]"
14,60,"COc1ccc(C[C@@H](NC(=O)NCCc2cc(C)ccc2C)c2nc3ccccc3[nH]2)cc1 [Example 306, (R)-1-(1-(1H-Benzo[d]imidazol-2-yl)-2-(4-methoxyphenyl)ethyl)-3-(2,5-dimethylphenethyl)urea]"
15,50,"COc1ccc(C[C@@H](NC(=O)NCc2cccc(Cl)c2Cl)c2nc3ccccc3[nH]2)cc1 [Example 307, (R)-1-(1-(1H-Benzo[d]imidazol-2-yl)-2-(4-methoxyphenyl)ethyl)-3-(2,3-dichlorobenzyl)urea]"
16,14,"COc1ccc(C[C@@H](NC(=O)Nc2cc(C3CC3)nn2C)c2nc3ccccc3[nH]2)cc1 [Example 314, (R)-1-(1-(1H-Benzo[d]imidazol-2-yl)-2-(4-methoxyphenyl)ethyl)-3-(3-cyclopropyl-1-methyl-1H-pyrazol-5-yl)urea]"
17,299,"COc1ccc(C[C@@H](NC(=O)Nc2cccnc2)c2nc3ccccc3[nH]2)cc1 [Example 315, (R)-1-(1-(1H-Benzo[d]imidazol-2-yl)-2-(4-methoxyphenyl)ethyl)-3-(pyridin-3-yl)urea]"
18,185,"COc1ccc(C[C@@H](NC(=O)N[C@H](C)c2ccc(F)cc2)c2nc3ccccc3[nH]2)cc1 [Example 320, 1-((R)-1-(1H-Benzo[d]imidazol-2-yl)-2-(4-methoxyphenyl)ethyl)-3-((R)-1-(4-fluorophenyl)ethyl)urea]"
19,128,"COc1ccc(C[C@@H](NC(=O)N[C@@H](C)c2ccc(F)cc2)c2nc3ccccc3[nH]2)cc1 [Example 321, 1-((R)-1-(1H-Benzo[d]imidazol-2-yl)-2-(4-methoxyphenyl)ethyl)-3-((S)-1-(4-fluorophenyl)ethyl)urea]"
20,585,"COc1ccc(C[C@@H](NC(=O)N[C@H](C)c2ccc(Br)cc2)c2nc3ccccc3[nH]2)cc1 [Example 322, 1-((R)-1-(1H-Benzo[d]imidazol-2-yl)-2-(4-methoxyphenyl)ethyl)-3-((R)-1-(4-bromophenyl)ethyl)urea]"
21,44,"COc1ccc(C[C@@H](NC(=O)N[C@@H](C)c2cccc(OC)c2)c2nc3ccccc3[nH]2)cc1 [Example 323, 1-((R)-1-(1H-Benzo[d]imidazol-2-yl)-2-(4-methoxyphenyl)ethyl)-3-((S)-1-(3-methoxyphenyl)ethyl)urea]"
22,712,"COc1ccc(C[C@@H](NC(=O)N[C@H](C)c2cccc(Cl)c2)c2nc3ccccc3[nH]2)cc1 [Example 324, 1-((R)-1-(1H-Benzo[d]imidazol-2-yl)-2-(4-methoxyphenyl)ethyl)-3-((R)-1-(3-chlorophenyl)ethyl)urea]"
23,186,"COc1ccc(C[C@@H](NC(=O)N[C@@H](C)c2cccc(Cl)c2)c2nc3ccccc3[nH]2)cc1 [Example 325, 1-((R)-1-(1H-Benzo[d]imidazol-2-yl)-2-(4-methoxyphenyl)ethyl)-3-((S)-1-(3-chlorophenyl)ethyl)urea]"
24,46,"COc1ccc(C[C@@H](NC(=O)N[C@@H](C)c2ccccc2OC)c2nc3ccccc3[nH]2)cc1 [Example 326, 1-((R)-1-(1H-Benzo[d]imidazol-2-yl)-2-(4-methoxyphenyl)ethyl)-3-((S)-1-(2-methoxyphenyl)ethyl)urea]"
25,310,"COc1ccc(C[C@@H](NC(=O)N[C@H](C)c2ccccc2OC)c2nc3ccccc3[nH]2)cc1 [Example 327, 1-((R)-1-(1H-Benzo[d]imidazol-2-yl)-2-(4-methoxyphenyl)ethyl)-3-((R)-1-(2-methoxyphenyl)ethyl)urea]"

# — patent US9663473B2 (Actelion Pharmaceuticals Ltd, priority 2013, dated 2017)
